Laboratory results from the NIST ThermoML archive (doi:10.1016/j.jct.2012.02.007).

Columns and labels:
[1] = mn = molality of the nth substance listed, in mol/kg; conditions: 101.3 kPa, Liquid; for speed of sound: Sing-around technique in a fixed-path interferometer; for mass density: Vibrating tube method
[2] = osmotic coefficient (dimensionless); mn = molality of the nth substance listed, in mol/kg; conditions: 323.15 K, Liquid, Vapor Pressure Osmometer

CCCCn1cc[n+](C)c1.N#CN=C=[N-] [1-butyl-3-methylimidazolium dicyanamide] + CC(C)O
[1]
Conditions | mass density, 293.15 K [kg/m3] | mass density, 308.15 K [kg/m3] | mass density, 323.15 K [kg/m3] | speed of sound, 293.15 K [m/s] | speed of sound, 308.15 K [m/s] | speed of sound, 323.15 K [m/s]
m1 = 0.0497 | 788.07 | 775.35 | 761.85 | 1163.1 | 1110.6 | 1057.6
m1 = 0.1012 | 790.54 | 777.9 | 764.5 | 1167.4 | 1115.4 | 1062.8
m1 = 0.1541 | 793.01 | 780.44 | 767.13 | 1171.9 | 1120.2 | 1067.8
m1 = 0.2003 | 795.12 | 782.61 | 769.37 | 1175.6 | 1124.1 | 1072
m1 = 0.2521 | 797.4 | 784.94 | 771.79 | 1179.7 | 1128.4 | 1076.6
m1 = 0.5105 | 808.27 | 796.04 | 783.22 | 1199.3 | 1148.9 | 1098.1
m1 = 0.7616 | 817.89 | 805.84 | 793.27 | 1216.7 | 1167 | 1117.1
m1 = 1.016 | 826.92 | 815.02 | 802.67 | 1233.3 | 1184.4 | 1135.3
m1 = 1.264 | 835.03 | 823.26 | 811.1 | 1248.4 | 1200 | 1151.6
m1 = 1.523 | 843.01 | 831.36 | 819.36 | 1263.4 | 1215.6 | 1167.9
m1 = 1.784 | 850.52 | 838.97 | 827.12 | 1278 | 1230.6 | 1183.3
m1 = 2.022 | 856.61 | 845.16 | 833.43 | 1289.6 | 1242.8 | 1196.1
m1 = 2.519 | 868.38 | 857.09 | 845.59 | 1312.7 | 1266.6 | 1220.9
m1 = 3.014 | 878.91 | 867.77 | 856.45 | 1333.7 | 1288.3 | 1243.4
m1 = 3.553 | 889.91 | 878.92 | 867.79 | 1356 | 1311.2 | 1267

[2]
Conditions | osmotic coefficient
m1 = 0.0572 | 0.973
m1 = 0.0884 | 0.925
m1 = 0.1125 | 0.905
m1 = 0.2169 | 0.838
m1 = 0.3275 | 0.795
m1 = 0.4213 | 0.77
m1 = 0.5065 | 0.757
m1 = 0.8172 | 0.712
m1 = 1.153 | 0.682
m1 = 1.6 | 0.665
m1 = 2.049 | 0.641
m1 = 2.416 | 0.619
m1 = 2.863 | 0.592
m1 = 3.314 | 0.565

CCCCn1cc[n+](C)c1.N#CN=C=[N-] [1-butyl-3-methylimidazolium dicyanamide] + CCC(C)O
[1]
Conditions | mass density, 293.15 K [kg/m3] | mass density, 308.15 K [kg/m3] | mass density, 323.15 K [kg/m3] | speed of sound, 293.15 K [m/s] | speed of sound, 308.15 K [m/s] | speed of sound, 323.15 K [m/s]
m1 = 0.0516 | 809.04 | 796.59 | 783.23 | 1234.5 | 1180.7 | 1125.7
m1 = 0.1009 | 811.17 | 798.81 | 785.57 | 1238.1 | 1184.9 | 1130.4
m1 = 0.1501 | 813.3 | 801.01 | 787.88 | 1241.8 | 1188.8 | 1134.6
m1 = 0.2081 | 815.7 | 803.5 | 790.47 | 1246 | 1193.3 | 1139.5
m1 = 0.2579 | 817.76 | 805.61 | 792.68 | 1249.3 | 1197.1 | 1143.6
m1 = 0.5079 | 827.23 | 815.35 | 802.8 | 1265.7 | 1214.4 | 1162.3
m1 = 0.7631 | 836.25 | 824.57 | 812.32 | 1281.1 | 1230.8 | 1179.8
m1 = 1.016 | 844.37 | 832.86 | 820.86 | 1295.3 | 1245.9 | 1195.9
m1 = 1.267 | 851.96 | 840.59 | 828.79 | 1308.6 | 1260 | 1210.9
m1 = 1.517 | 858.95 | 847.71 | 836.09 | 1321.1 | 1273 | 1224.8
m1 = 1.782 | 865.94 | 854.81 | 843.35 | 1333.7 | 1286.2 | 1238.7
m1 = 1.95 | 870.16 | 859.09 | 847.71 | 1341.3 | 1294.2 | 1247
m1 = 2.523 | 883.17 | 872.28 | 861.18 | 1365.1 | 1319.1 | 1273.2
m1 = 3.56 | 902.51 | 891.67 | 880.92 | 1401.6 | 1356.4 | 1312.5

[2]
Conditions | osmotic coefficient
m1 = 0.0525 | 0.893
m1 = 0.0792 | 0.826
m1 = 0.0995 | 0.811
m1 = 0.2159 | 0.76
m1 = 0.3148 | 0.715
m1 = 0.4003 | 0.687
m1 = 0.5143 | 0.653
m1 = 0.8478 | 0.592
m1 = 1.241 | 0.556
m1 = 1.639 | 0.538
m1 = 2.038 | 0.524
m1 = 2.439 | 0.517
m1 = 2.842 | 0.502
m1 = 3.307 | 0.492

CCCCn1cc[n+](C)c1.N#CN=C=[N-] [1-butyl-3-methylimidazolium dicyanamide] + CCCCCO
[1]
Conditions | mass density, 293.15 K [kg/m3] | mass density, 308.15 K [kg/m3] | mass density, 323.15 K [kg/m3] | speed of sound, 293.15 K [m/s] | speed of sound, 308.15 K [m/s] | speed of sound, 323.15 K [m/s]
m1 = 0.0499 | 816.84 | 805.86 | 794.56 | 1296.1 | 1246.2 | 1196.7
m1 = 0.1005 | 818.99 | 808.05 | 796.79 | 1299.3 | 1249.5 | 1200.3
m1 = 0.1579 | 821.34 | 810.43 | 799.21 | 1302.8 | 1253.2 | 1204.2
m1 = 0.2012 | 823.14 | 812.25 | 801.07 | 1305.5 | 1256 | 1207.2
m1 = 0.2575 | 825.39 | 814.53 | 803.38 | 1308.7 | 1259.4 | 1210.8
m1 = 0.5093 | 834.72 | 823.96 | 812.96 | 1322.3 | 1273.7 | 1225.8
m1 = 0.7636 | 843.46 | 832.73 | 821.84 | 1334.4 | 1286.4 | 1238.6
m1 = 1.022 | 851.58 | 840.96 | 830.18 | 1346.7 | 1299.3 | 1252.8
m1 = 1.271 | 858.96 | 848.35 | 837.65 | 1357 | 1310.2 | 1263.7
m1 = 1.52 | 865.82 | 855.32 | 844.69 | 1367.7 | 1321.4 | 1275.9
m1 = 1.766 | 872.07 | 861.65 | 851.09 | 1377 | 1331.2 | 1286.1
m1 = 1.982 | 877.32 | 866.91 | 856.41 | 1385 | 1339.5 | 1294.8
m1 = 2.527 | 889.3 | 878.99 | 868.61 | 1403.6 | 1358.9 | 1315.1
m1 = 2.998 | 898.47 | 888.26 | 877.98 | 1418.4 | 1374.3 | 1331.1
m1 = 3.512 | 907.39 | 897.32 | 887.14 | 1432.6 | 1389.6 | 1347

[2]
Conditions | osmotic coefficient
m1 = 0.0625 | 0.784
m1 = 0.0829 | 0.719
m1 = 0.1019 | 0.669
m1 = 0.2131 | 0.627
m1 = 0.3093 | 0.596
m1 = 0.4113 | 0.582
m1 = 0.5349 | 0.566
m1 = 0.8273 | 0.537
m1 = 1.131 | 0.52
m1 = 1.443 | 0.509
m1 = 1.749 | 0.502
m1 = 2.246 | 0.493
m1 = 2.756 | 0.478
m1 = 3.23 | 0.458

CCCCn1cc[n+](C)c1.N#CN=C=[N-] [1-butyl-3-methylimidazolium dicyanamide] + CCCCO
[1]
Conditions | mass density, 293.15 K [kg/m3] | mass density, 308.15 K [kg/m3] | mass density, 323.15 K [kg/m3] | speed of sound, 293.15 K [m/s] | speed of sound, 308.15 K [m/s] | speed of sound, 323.15 K [m/s]
m1 = 0.0564 | 812.2 | 800.77 | 788.99 | 1261.4 | 1211.3 | 1161.9
m1 = 0.1049 | 814.3 | 802.91 | 791.18 | 1264.8 | 1214.9 | 1165.8
m1 = 0.156 | 816.47 | 805.11 | 793.43 | 1268.3 | 1218.6 | 1169.6
m1 = 0.204 | 818.49 | 807.15 | 795.51 | 1271.7 | 1222 | 1173.1
m1 = 0.2581 | 820.7 | 809.41 | 797.8 | 1275.2 | 1225.8 | 1177.1
m1 = 0.5068 | 830.31 | 819.12 | 807.68 | 1290.3 | 1241.6 | 1193.7
m1 = 0.7637 | 839.41 | 828.32 | 817.01 | 1304.9 | 1256.7 | 1209.3
m1 = 1.006 | 847.36 | 836.34 | 825.14 | 1317.6 | 1270 | 1223.2
m1 = 1.271 | 855.38 | 844.45 | 833.35 | 1330.6 | 1283.5 | 1237.4
m1 = 1.516 | 862.28 | 851.41 | 840.4 | 1341.9 | 1295.3 | 1249.7
m1 = 1.766 | 868.85 | 858.05 | 847.12 | 1352.9 | 1306.7 | 1261.6
m1 = 2.004 | 874.76 | 864.01 | 853.15 | 1362.9 | 1317.1 | 1272.3
m1 = 2.509 | 886.17 | 875.53 | 864.81 | 1382.3 | 1337.5 | 1293.4
m1 = 2.993 | 895.87 | 885.33 | 874.72 | 1399.5 | 1355.1 | 1311.7
m1 = 3.535 | 905.44 | 895.01 | 884.51 | 1416.7 | 1373 | 1330.2

[2]
Conditions | osmotic coefficient
m1 = 0.0803 | 0.739
m1 = 0.1014 | 0.707
m1 = 0.2018 | 0.653
m1 = 0.31 | 0.625
m1 = 0.4166 | 0.604
m1 = 0.5175 | 0.594
m1 = 0.8182 | 0.585
m1 = 1.221 | 0.564
m1 = 1.633 | 0.551
m1 = 2.026 | 0.536
m1 = 2.413 | 0.528
m1 = 2.82 | 0.522
m1 = 3.306 | 0.508
